Assays:
[1] = tested on: P19 cells; assay: P19 neurosphere formation assay; format: cell-based, mouse; details: P19 cells cultured 24 h
Method: All reagents, unless indicated, were from Sigma-Aldrich (St. Louis, MO, USA). The synthesis and structure of VCE-003.2 were previously described. Mouse embryonic teratocarcinoma P19 were cultured in high-glucose DMEM (Invitrogen) supplemented with 10% fetal bovine serum and 1% penicillin/streptomycin. P19 cells were plated in 24-well plates and transfected with Lipofectamine 2000 reagent according to the manufacture’s protocol (Invitrogen). Twenty-four hours post transfection, cells were collected for RNA extraction or luciferase assay determinations. […] Twenty-four hours later the mean neurosphere size was quantified. […]
Fig. 2 VCE-003.2 exerts a pro-neurogenic effect in vitro. a-b Mouse embryonic stem cells (R1 line) were treated with Vehicle, VCE-003.2 (500 nM) during neural differentiation for 21 days. Representative immunofluorescence images and quantification of CTIP2- and doublecortin-positive cells is shown (n = 3). c Luciferase reporter assay of the A4-MARS sequence of the CTIP2 locus was performed 24 h after P19 cell transfection under neuronal differentiation conditions and subject to pharmacological regulation as above. d P19 neurosphere formation assay was performed by culturing the cells for 24 h in the presence of Vehicle or VCE-003.2. […]

[2] = target: hERG channel (Homo sapiens, UniProt Q12809); assay: hERG channel inhibition, IonWorks HT electrophysiology in CHO-hERG cells
[3] = tested on: R1 mouse embryonic stem (mES) cell line; assay: Mouse embryonic stem cell (R1) neural differentiation, CTIP2 and doublecortin immunofluorescence; format: cell-based; details: 500 nM during neural differentiation for 21 days, vs vehicle
Method: R1 mouse embryonic stem (mES) cell line was grown on gelatin 0.1%, in Knockout DMEM supplemented with 20% Knockout Serum Replacement, 1000 U ml-1 of LIF, 0.1 mM of non-essential amino acids, 2 mM ultraglutamine, 50 U ml-1 of penicillin and streptomycin and 0.1 mM of 2-mercaptoethanol. Cells were then differentiated at low density in Defined Default Medium (DDM) containing DMEM/F12 + GlutaMAX supplemented with N2 supplement (1×), 5 mM of Hepes Buffer, 0.1 mM of non-essential amino acids, 1 mM of sodium pyruvate, 2.5 mg ml-1 of AlbuMax-I, 30 mM of D-Glucose, 0.1 mM of non-essential amino acids, 0.1 mM of 2-mercaptoethanol, 50 U ml-1 of penicillin and streptomycin for 12 days. […]
Free floating coronal brain slices (30 μm) were processed as previously described. […] The lateral SVZ zone was delineated by using DAPI-counterstained cell nuclei, and analyses were performed in the upper dorsal tier, in which positively-labelled cells and immunoreactivity were quantified not beyond 100 μm of the SVZ. Confocal fluorescence images were acquired by using LAS-X software (Wetzlar, Germany) and SP8 microscope with 2 passes by Kalman filter, a 1024X1024 collection box, and pinhole AU 1. […] Cells were quantified within a 20 × 20 μm counting frame, which randomly sampled within a 122.8 × 68.9 μm counting grid. […]

[4] = tested on: CTIP2 transcriptional activity; assay: CTIP2 luciferase transcriptional reporter assay (A4-MARS) in P19 cells; format: cell-based, mouse; details: 24 h after transfection, neuronal differentiation conditions, vs vehicle
Method: All reagents, unless indicated, were from Sigma-Aldrich (St. Louis, MO, USA). The synthesis and structure of VCE-003.2 were previously described. Mouse embryonic teratocarcinoma P19 were cultured in high-glucose DMEM (Invitrogen) supplemented with 10% fetal bovine serum and 1% penicillin/streptomycin. P19 cells were plated in 24-well plates and transfected with Lipofectamine 2000 reagent according to the manufacture’s protocol (Invitrogen). Twenty-four hours post transfection, cells were collected for RNA extraction or luciferase assay determinations. P19 neurosphere formation assay was performed using dissociated P19 cells cultured in high-glucose DMEM (Invitrogen) supplemented with 5% of fetal bovine serum and 0. 5 μM retinoic acid. Twenty-four hours later the mean neurosphere size was quantified. Luciferase construct with the MAR sequence A4 of the Ctip2 promoter was kindly provided (R. Grosschedl, Max-Planck-Institute of Immunobiology and Epigenetics, Freiburg, Germany).
To study CTIP2 transcriptional activity P19 cells were seeded in 24-well plates and transiently co-transfected with the luciferase reporter vector MARS-A4-luc using Roti-Fect (Carl Roth, Karlsruhe, Germany) following the manufacturer’s instructions. […] After stimulation, the luciferase activities were quantified using Dual-Luciferase Assay (Promega, Madison, WI, USA). […]

Chain of hERG channel (Q12809 whole entry): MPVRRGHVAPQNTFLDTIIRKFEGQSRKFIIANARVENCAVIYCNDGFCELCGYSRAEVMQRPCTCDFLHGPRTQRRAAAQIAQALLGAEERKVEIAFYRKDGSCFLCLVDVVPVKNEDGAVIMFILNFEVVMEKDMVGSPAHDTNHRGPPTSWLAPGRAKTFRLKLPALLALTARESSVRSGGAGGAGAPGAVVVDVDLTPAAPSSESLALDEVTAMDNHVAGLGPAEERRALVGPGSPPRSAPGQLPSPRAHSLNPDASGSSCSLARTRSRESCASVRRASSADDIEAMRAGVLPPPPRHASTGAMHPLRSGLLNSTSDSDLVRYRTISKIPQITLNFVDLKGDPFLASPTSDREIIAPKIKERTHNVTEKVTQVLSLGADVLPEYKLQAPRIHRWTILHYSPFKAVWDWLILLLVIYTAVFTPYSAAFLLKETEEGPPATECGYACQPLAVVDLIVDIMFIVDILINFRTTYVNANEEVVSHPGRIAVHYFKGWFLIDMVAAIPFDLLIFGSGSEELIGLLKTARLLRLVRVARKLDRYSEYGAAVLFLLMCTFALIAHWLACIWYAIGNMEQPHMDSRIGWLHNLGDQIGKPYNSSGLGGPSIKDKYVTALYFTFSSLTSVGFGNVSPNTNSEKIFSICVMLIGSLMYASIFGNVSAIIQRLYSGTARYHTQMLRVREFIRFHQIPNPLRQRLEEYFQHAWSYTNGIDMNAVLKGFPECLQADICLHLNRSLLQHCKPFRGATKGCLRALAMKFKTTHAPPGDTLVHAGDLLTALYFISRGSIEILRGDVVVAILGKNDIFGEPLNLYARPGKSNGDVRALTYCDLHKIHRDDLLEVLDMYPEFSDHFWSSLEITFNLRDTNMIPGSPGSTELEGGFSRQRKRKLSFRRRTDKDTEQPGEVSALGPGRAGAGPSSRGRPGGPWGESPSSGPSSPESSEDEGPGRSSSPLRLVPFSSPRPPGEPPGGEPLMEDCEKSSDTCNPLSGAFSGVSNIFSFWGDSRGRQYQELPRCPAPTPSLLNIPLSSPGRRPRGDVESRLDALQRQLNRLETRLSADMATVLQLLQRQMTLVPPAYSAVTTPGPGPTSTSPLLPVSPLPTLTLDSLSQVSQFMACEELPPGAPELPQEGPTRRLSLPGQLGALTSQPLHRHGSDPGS

CCCCCC1=C(NCC)C(=O)C(CC=C(C)CCC=C(C)C)=C(O)C1=O [VCE-003.2, 2-(3,7-dimethyl-octa-2,6-dienyl)-6-ethylamino-3-hydroxy-5-pentyl-(1,4) benzoquinone]
mean neurosphere size [1]: 367.90 ± 15.20 μm | IC50 [2]: > 25 µM | doublecortin immunoreactivity [3]: increased | number of CTIP2-positive cells [3]: increased the number of CTIP2-positive cells | CTIP2 reporter (A4-MARS luciferase) activity [4]: CTIP2 reporter activation

— article PMC6407204, “Oral administration of the cannabigerol derivative VCE-003.2 promotes subventricular zone neurogenesis and protects against mutant huntingtin-induced neurodegeneration” (Translational Neurodegeneration, 2019)
